Measurements published in US20080009418A1, “Selective Inhibitors” (Alchemia LTD., priority 2004, published 2008).

Legend:
[1] = biological target: T1, Human melanin-concentrating hormone (MCH1) (Homo sapiens, UniProt Q99705); assay: Radioligand binding, human melanin-concentrating hormone MCH1 membranes, FlashPlate, [125I]-S36057; conditions: compound at 10 μM; [125I]-S36057, FlashPlate
T1 construct: purchased Perkin Elmer Biosignal
How it was run: (§1)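 Cloned human receptor membranes were coated onto FlashPlate wells and incubated with radioligand and compound (added from a 0.5 mM DMSO daughter plate) for 1 hour at room temperature in the dark. Scintillation counting gave percent inhibition, with DMSO defining total and reference ligand defining non-specific binding.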

Mouse urotensin (mUR2) = biological target: T2, Mouse urotensin (mUR2) (Mus musculus, UniProt Q8VIH9); assay: Radioligand binding, mouse urotensin mUR2 membranes, FlashPlate, [125I]-Urotensin II; conditions: compound at 10 μM; [125I]-Urotensin II, FlashPlate
T2 construct: purchased Perkin Elmer Biosignal
T2 sequence (Q8VIH9 1-385): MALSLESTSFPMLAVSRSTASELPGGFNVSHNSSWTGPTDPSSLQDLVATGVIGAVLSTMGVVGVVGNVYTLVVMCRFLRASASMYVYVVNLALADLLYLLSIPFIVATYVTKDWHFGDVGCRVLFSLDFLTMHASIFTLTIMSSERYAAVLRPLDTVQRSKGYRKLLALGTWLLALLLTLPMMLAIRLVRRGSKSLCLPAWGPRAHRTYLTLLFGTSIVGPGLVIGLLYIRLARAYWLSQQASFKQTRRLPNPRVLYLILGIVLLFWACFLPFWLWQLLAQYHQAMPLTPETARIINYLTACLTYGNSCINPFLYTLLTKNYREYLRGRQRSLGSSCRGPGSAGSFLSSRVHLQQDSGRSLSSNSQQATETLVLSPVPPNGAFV
How it was run: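 Cloned mouse urotensin (mUR2) receptor membranes from Perkin Elmer Biosignal were immobilized in FlashPlate microplates using a proprietary coating. Each well got 19.5 μl buffer, then 0.5 μl of DMSO, reference ligand, or compound. Adding 5 μl of [125I]-Urotensin II, diluted to 5× final concentration in binding buffer, started binding. Plates were sealed with TopSeal-A and incubated 1 hour at room temperature in the dark. Wells were counted for 30 seconds each on a TopCount after a 60-second delay, and percentage inhibition was calculated.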

Human δ-opioid (DOP) = biological target: T3, Human δ-opioid (DOP) (Homo sapiens, UniProt P41143); assay: Radioligand binding, human δ-opioid (DOP) membranes, FlashPlate, [3H]-Bremazocine; conditions: compound at 10 μM; [3H]-Bremazocine, FlashPlate
T3 construct: purchased Perkin Elmer Biosignal
T3 sequence (P41143 whole entry): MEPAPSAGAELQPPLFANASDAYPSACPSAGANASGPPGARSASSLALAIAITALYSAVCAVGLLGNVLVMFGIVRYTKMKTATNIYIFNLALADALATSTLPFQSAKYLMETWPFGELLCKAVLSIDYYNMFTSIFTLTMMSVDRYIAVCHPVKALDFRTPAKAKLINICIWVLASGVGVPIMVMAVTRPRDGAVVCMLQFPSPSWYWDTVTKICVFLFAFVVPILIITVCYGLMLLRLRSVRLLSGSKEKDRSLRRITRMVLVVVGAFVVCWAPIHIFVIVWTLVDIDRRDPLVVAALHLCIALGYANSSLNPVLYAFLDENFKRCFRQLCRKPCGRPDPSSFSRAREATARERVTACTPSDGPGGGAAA
How it was run: as §1

Human opioid (ORL1) = biological target: T4, Human opioid (ORL1) (Homo sapiens, UniProt P41146); assay: Radioligand binding, human opioid ORL1 membranes, FlashPlate, [125I]-Nociceptin; conditions: compound at 10 μM; [125I]-Nociceptin, FlashPlate
T4 construct: purchased Perkin Elmer Biosignal
T4 sequence (P41146 whole entry): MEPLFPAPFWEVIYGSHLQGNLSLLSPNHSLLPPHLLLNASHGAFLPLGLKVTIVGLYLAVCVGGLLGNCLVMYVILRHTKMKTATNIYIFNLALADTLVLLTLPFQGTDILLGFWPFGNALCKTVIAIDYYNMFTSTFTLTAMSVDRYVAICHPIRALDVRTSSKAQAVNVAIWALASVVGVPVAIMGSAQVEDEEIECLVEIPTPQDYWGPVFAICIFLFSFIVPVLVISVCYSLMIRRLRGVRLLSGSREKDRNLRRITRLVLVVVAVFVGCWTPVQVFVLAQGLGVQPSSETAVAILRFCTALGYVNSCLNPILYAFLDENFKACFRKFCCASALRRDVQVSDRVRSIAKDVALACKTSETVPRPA
How it was run: as §1

[2] = biological target: T5, Human neuropeptide Y (NPY-Y1) (Homo sapiens, UniProt P25929); assay: Radioligand binding, human neuropeptide Y NPY-Y1 membranes, FlashPlate, [125I]-PYY; conditions: compound at 10 μM; [125I]-PYY, FlashPlate
T5 construct: purchased Perkin Elmer Biosignal
T5 sequence (P25929 1-384): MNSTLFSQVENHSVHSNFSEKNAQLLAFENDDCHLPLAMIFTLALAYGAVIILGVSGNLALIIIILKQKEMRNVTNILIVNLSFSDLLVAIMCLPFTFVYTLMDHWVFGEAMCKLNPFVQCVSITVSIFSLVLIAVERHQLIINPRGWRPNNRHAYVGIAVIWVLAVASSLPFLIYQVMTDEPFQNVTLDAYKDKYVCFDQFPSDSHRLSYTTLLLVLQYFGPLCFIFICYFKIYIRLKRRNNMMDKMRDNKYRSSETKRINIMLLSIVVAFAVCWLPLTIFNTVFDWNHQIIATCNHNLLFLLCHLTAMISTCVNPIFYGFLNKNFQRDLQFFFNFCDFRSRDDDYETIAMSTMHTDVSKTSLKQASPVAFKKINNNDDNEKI
How it was run: as §1

Human melanocortin (MC5) = biological target: T6, Human melanocortin (MC5) (Homo sapiens, UniProt P33032); assay: Radioligand binding, human melanocortin MC5 membranes, FlashPlate, [125I]-NDP-αMSH; conditions: compound at 10 μM; [125I]-NDP-αMSH, FlashPlate
T6 construct: purchased Perkin Elmer Biosignal
T6 sequence (P33032 whole entry): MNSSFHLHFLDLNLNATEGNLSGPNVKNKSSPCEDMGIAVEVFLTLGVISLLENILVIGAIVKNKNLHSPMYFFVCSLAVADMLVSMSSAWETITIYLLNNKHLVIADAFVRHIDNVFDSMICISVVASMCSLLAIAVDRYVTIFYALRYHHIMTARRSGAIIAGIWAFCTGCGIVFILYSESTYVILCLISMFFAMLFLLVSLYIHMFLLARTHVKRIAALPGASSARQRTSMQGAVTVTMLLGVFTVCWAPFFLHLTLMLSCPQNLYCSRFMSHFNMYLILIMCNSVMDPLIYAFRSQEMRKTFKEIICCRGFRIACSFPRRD
How it was run: as §1

Human Melanocortin (MC3) = biological target: T7, Human Melanocortin (MC3) (Homo sapiens, UniProt P41968); assay: Radioligand binding, human melanocortin MC3 membranes, FlashPlate, [125I]-NDP-αMSH; conditions: compound at 10 μM; [125I]-NDP-αMSH, FlashPlate
T7 construct: purchased Perkin Elmer Biosignal
T7 sequence (P41968 whole entry): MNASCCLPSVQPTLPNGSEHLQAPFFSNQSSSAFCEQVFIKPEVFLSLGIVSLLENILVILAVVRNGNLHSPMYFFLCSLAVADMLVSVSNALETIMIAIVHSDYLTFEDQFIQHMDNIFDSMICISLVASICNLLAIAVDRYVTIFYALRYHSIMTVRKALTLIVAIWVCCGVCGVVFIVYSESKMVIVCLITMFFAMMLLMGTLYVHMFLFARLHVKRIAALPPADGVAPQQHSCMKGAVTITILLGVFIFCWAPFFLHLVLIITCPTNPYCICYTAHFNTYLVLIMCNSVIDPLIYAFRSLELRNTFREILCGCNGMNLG
How it was run: as §1

Human neurokinin (NK1) = biological target: T8, Human neurokinin (NK1) (Homo sapiens, UniProt P25103); assay: Radioligand binding, human neurokinin NK1 membranes, filtration, [125I]-Substance P; conditions: compound at 10 μM; [125I]-Substance P, filtration
T8 construct: purchased Perkin Elmer Biosignal
T8 sequence (P25103 whole entry): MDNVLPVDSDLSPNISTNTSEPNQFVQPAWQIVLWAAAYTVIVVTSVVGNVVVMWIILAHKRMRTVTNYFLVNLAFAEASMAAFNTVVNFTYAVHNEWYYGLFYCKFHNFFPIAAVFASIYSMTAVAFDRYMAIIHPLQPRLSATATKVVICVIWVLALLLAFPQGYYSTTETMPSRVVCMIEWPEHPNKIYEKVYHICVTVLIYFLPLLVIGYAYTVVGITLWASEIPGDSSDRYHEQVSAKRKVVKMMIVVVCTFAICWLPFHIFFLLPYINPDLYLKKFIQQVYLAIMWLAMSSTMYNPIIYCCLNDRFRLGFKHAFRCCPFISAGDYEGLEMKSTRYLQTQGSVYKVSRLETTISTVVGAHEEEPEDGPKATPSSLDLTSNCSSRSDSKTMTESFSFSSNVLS
How it was run: (§2)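 Membranes from cloned human receptors were incubated with compound and radioligand for 1 hour at room temperature. Bound ligand was collected on 0.3% PEI-soaked filters, washed with cold 50 mM Tris-HCl pH 7.4, and counted by scintillation. Percent inhibition was computed against DMSO totals and reference-ligand nonspecific wells.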

Human κ-Opioid (KOP) = biological target: T9, Human κ-Opioid (KOP) (Homo sapiens, UniProt P41145); assay: Radioligand binding, human κ-opioid (KOP) membranes, filtration, [3H]-Diprenorphine; conditions: compound at 10 μM; [3H]-Diprenorphine, filtration
T9 construct: purchased Perkin Elmer Biosignal
T9 sequence (P41145 whole entry): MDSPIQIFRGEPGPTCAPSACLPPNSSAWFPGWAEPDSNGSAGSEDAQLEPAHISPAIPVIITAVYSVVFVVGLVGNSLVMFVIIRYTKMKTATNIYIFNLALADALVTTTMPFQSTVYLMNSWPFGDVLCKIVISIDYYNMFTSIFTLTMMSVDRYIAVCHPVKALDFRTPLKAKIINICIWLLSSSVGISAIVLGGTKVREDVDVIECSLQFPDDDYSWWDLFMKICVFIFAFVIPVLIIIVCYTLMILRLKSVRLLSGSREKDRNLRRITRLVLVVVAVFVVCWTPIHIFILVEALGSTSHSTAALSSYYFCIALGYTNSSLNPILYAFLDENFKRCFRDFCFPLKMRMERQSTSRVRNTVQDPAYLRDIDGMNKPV
How it was run: as §2

Human Melanocortin (MC4) = biological target: T10, Human Melanocortin (MC4) (Homo sapiens, UniProt P32245); assay: Radioligand binding, human melanocortin MC4 membranes, FlashPlate, [125I]-NDP-αMSH; conditions: compound at 10 μM; [125I]-NDP-αMSH, FlashPlate
T10 construct: purchased Perkin Elmer Biosignal
T10 sequence (P32245 whole entry): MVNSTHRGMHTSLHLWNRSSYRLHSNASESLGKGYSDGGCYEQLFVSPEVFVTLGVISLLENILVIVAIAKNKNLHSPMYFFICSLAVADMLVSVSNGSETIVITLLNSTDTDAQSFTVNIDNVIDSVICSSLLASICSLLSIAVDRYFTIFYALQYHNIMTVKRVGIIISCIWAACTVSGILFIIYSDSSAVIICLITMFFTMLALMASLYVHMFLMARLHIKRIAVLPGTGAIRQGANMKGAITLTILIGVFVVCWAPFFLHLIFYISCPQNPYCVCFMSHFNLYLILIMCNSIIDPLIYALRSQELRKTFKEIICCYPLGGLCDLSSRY
How it was run: as §1

Human μ-opioid (MOP) = biological target: T11, Human μ-opioid (MOP) (Homo sapiens, UniProt P35372); assay: Radioligand binding, human μ-opioid (MOP) membranes, FlashPlate, [3H]-Naloxone; conditions: compound at 10 μM; [3H]-Naloxone, FlashPlate
T11 construct: purchased Perkin Elmer Biosignal
T11 sequence (P35372 whole entry): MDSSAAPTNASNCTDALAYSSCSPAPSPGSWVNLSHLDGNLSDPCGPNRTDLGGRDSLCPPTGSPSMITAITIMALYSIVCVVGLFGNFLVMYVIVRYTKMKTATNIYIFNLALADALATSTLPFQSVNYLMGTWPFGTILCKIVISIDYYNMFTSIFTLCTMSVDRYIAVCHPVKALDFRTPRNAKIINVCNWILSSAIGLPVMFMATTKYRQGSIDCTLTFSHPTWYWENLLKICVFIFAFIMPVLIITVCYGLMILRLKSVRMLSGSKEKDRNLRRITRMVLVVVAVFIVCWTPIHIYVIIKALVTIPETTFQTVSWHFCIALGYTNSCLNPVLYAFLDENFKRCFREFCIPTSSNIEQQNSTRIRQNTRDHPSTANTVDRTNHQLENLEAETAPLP
How it was run: as §1

T1 sequence (Q99705 whole entry): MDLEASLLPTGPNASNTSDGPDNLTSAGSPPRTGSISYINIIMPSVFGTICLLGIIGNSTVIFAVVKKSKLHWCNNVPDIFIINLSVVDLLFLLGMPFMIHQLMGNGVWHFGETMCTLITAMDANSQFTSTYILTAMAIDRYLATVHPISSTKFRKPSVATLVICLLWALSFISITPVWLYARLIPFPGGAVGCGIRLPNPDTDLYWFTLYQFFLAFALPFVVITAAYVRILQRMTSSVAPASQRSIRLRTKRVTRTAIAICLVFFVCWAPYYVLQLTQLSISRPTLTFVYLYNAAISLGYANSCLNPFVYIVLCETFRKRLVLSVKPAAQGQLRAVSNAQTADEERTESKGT

| SMILES | A6: inhibition of radioligand binding [1] | A11: inhibition of radioligand binding (Mouse urotensin (mUR2)) | A1: inhibition of radioligand binding (Human δ-opioid (DOP)) | A10: inhibition of radioligand binding (Human opioid (ORL1)) | A9: inhibition of radioligand binding [2] | A5: inhibition of radioligand binding (Human melanocortin (MC5)) | A3: inhibition of radioligand binding (Human Melanocortin (MC3)) | A8: inhibition of radioligand binding (Human neurokinin (NK1)) | A2: inhibition of radioligand binding (Human κ-Opioid (KOP)) | A4: inhibition of radioligand binding (Human Melanocortin (MC4)) | A7: inhibition of radioligand binding (Human μ-opioid (MOP)) |
| --- | --- | --- | --- | --- | --- | --- | --- | --- | --- | --- | --- |
| CSC1O[C@H](COCc2ccc(Cl)cc2)[C@@H](O)[C@@H](OCc2ccc(Cl)cc2)[C@H]1NC(=O)CCCNC(=N)N (stereo partly shown) [compound 274] | − (“−” indicates less than 50% inhibition at 10 μM) | − (“−” indicates less than 50% inhibition at 10 μM) | − (“−” indicates less than 50% inhibition at 10 μM) | − (“−” indicates less than 50% inhibition at 10 μM) | − (“−” indicates less than 50% inhibition at 10 μM) | − (“−” indicates less than 50% inhibition at 10 μM) | − (“−” indicates less than 50% inhibition at 10 μM) | + (“+” indicates greater than 50% inhibition at 10 μM) | − (“−” indicates less than 50% inhibition at 10 μM) | − (“−” indicates less than 50% inhibition at 10 μM) | − (“−” indicates less than 50% inhibition at 10 μM) |
| CSC1O[C@H](COCc2ccc(-c3ccccc3)cc2)[C@@H](O)[C@@H](OCc2ccc(Cl)cc2)[C@H]1NC(=O)CNC(=N)N (stereo partly shown) [compound 275] | − (“−” indicates less than 50% inhibition at 10 μM) | − (“−” indicates less than 50% inhibition at 10 μM) | − (“−” indicates less than 50% inhibition at 10 μM) | − (“−” indicates less than 50% inhibition at 10 μM) | − (“−” indicates less than 50% inhibition at 10 μM) | + (“+” indicates greater than 50% inhibition at 10 μM) | − (“−” indicates less than 50% inhibition at 10 μM) | + (“+” indicates greater than 50% inhibition at 10 μM) | − (“−” indicates less than 50% inhibition at 10 μM) | + (“+” indicates greater than 50% inhibition at 10 μM) | − (“−” indicates less than 50% inhibition at 10 μM) |
| CSC1O[C@H](COCc2ccc(-c3ccccc3)cc2)[C@@H](O)[C@@H](OCc2ccc(Cl)cc2)[C@H]1NC(=O)CCN (stereo partly shown) [compound 276] | − (“−” indicates less than 50% inhibition at 10 μM) | − (“−” indicates less than 50% inhibition at 10 μM) | − (“−” indicates less than 50% inhibition at 10 μM) | − (“−” indicates less than 50% inhibition at 10 μM) | − (“−” indicates less than 50% inhibition at 10 μM) | − (“−” indicates less than 50% inhibition at 10 μM) | − (“−” indicates less than 50% inhibition at 10 μM) | + (“+” indicates greater than 50% inhibition at 10 μM) | − (“−” indicates less than 50% inhibition at 10 μM) | − (“−” indicates less than 50% inhibition at 10 μM) | − (“−” indicates less than 50% inhibition at 10 μM) |
| CSC1O[C@H](COCc2ccc(-c3ccccc3)cc2)[C@@H](O)[C@@H](OCc2ccc(Cl)cc2)[C@H]1NC(=O)CCNC(=N)N (stereo partly shown) [compound 277] | − (“−” indicates less than 50% inhibition at 10 μM) | − (“−” indicates less than 50% inhibition at 10 μM) | − (“−” indicates less than 50% inhibition at 10 μM) | − (“−” indicates less than 50% inhibition at 10 μM) | − (“−” indicates less than 50% inhibition at 10 μM) | − (“−” indicates less than 50% inhibition at 10 μM) | + (“+” indicates greater than 50% inhibition at 10 μM) | + (“+” indicates greater than 50% inhibition at 10 μM) | − (“−” indicates less than 50% inhibition at 10 μM) | − (“−” indicates less than 50% inhibition at 10 μM) | − (“−” indicates less than 50% inhibition at 10 μM) |
| CSC1O[C@H](COCc2ccc(-c3ccccc3)cc2)[C@@H](O)[C@@H](OCc2ccc(Cl)cc2)[C@H]1NC(=O)CCCN (stereo partly shown) [compound 278] | − (“−” indicates less than 50% inhibition at 10 μM) | − (“−” indicates less than 50% inhibition at 10 μM) | − (“−” indicates less than 50% inhibition at 10 μM) | − (“−” indicates less than 50% inhibition at 10 μM) | − (“−” indicates less than 50% inhibition at 10 μM) | − (“−” indicates less than 50% inhibition at 10 μM) | − (“−” indicates less than 50% inhibition at 10 μM) | + (“+” indicates greater than 50% inhibition at 10 μM) | − (“−” indicates less than 50% inhibition at 10 μM) | − (“−” indicates less than 50% inhibition at 10 μM) | − (“−” indicates less than 50% inhibition at 10 μM) |
